Measured values: PubChem BioAssay AID248 (DTP/NCI, 2004)
Values joined by “and” are separate entries in the source; they are usually repeats but may differ in a detail not shown here. Identical values can stand only once. Inconclusive results and toxic doses are left out. Rule as the data show it: active = T/C of 150% or more; inactive = T/C below 125%. Peptide text beside a SMILES is read from it. * marks the point of attachment. Cbz = O=C(OCc1ccccc1)*

Test system: L1210 leukemia ip in BDF1 mice, survival T/C
Test: NCI In Vivo Anticancer Drug Screen. Data for tumor model L1210 Leukemia (intraperitoneal) in B6D2F1 (BDF1) mice
Conditions: endpoint: mean survival time, higher = longer survival
In short: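 Antitumor effect is assessed in tumor-bearing animals. Survival in the compound arm is compared with a vehicle-dosed control arm and expressed as their quotient.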

[1] = dose: 100.0 mg/kg/injection, schedule: Q01DX009 (ip), vehicle: saline
[2] = dose: 100.0 mg/kg/injection, schedule: Q04DX003 (ip), vehicle: saline
[3] = dose: 200.0 mg/kg/injection, schedule: Q01DX009 (ip), vehicle: saline
[4] = dose: 100.0 mg/kg/injection, schedule: Q01DX009 (ip), vehicle: saline with Tween-80
[5] = dose: 100.0 mg/kg/injection, schedule: Q04DX003 (ip), vehicle: saline with Tween-80
[6] = dose: 200.0 mg/kg/injection, schedule: Q01DX009 (ip), vehicle: saline with Tween-80
[7] = dose: 200.0 mg/kg/injection, schedule: Q04DX003 (ip), vehicle: saline with Tween-80
[8] = dose: 400.0 mg/kg/injection, schedule: Q01DX009 (ip), vehicle: saline with Tween-80
[9] = dose: 400.0 mg/kg/injection, schedule: Q04DX003 (ip), vehicle: saline with Tween-80
[10] = dose: 100.0 mg/kg/injection, schedule: Q01DX009 (ip), vehicle: Klucel (hydroxypropylcellulose) (HPC)
[11] = dose: 100.0 mg/kg/injection, schedule: Q04DX003 (ip), vehicle: Klucel (hydroxypropylcellulose) (HPC)
[12] = dose: 100.0 mg/kg/injection, schedule: Q01DX001 (ip), vehicle: saline
[13] = dose: 200.0 mg/kg/injection, schedule: Q01DX001 (ip), vehicle: saline
[14] = dose: 400.0 mg/kg/injection, schedule: Q01DX001 (ip), vehicle: saline
[15] = dose: 200.0 mg/kg/injection, schedule: Q04DX003 (ip), vehicle: Klucel (hydroxypropylcellulose) (HPC)
[16] = dose: 400.0 mg/kg/injection, schedule: Q04DX003 (ip), vehicle: Klucel (hydroxypropylcellulose) (HPC)

Measured: T/C

Oc1ccc(CNCCNCCNCc2ccc(O)cc2)cc1
inactive: dose: 12.5 mg/kg/injection, schedule: Q01DX009 (ip), vehicle: saline 87 % of control | dose: 25.0 mg/kg/injection, schedule: Q01DX009 (ip), vehicle: saline 102 % of control | dose: 25.0 mg/kg/injection, schedule: Q04DX003 (ip), vehicle: saline 110 % of control | dose: 50.0 mg/kg/injection, schedule: Q01DX009 (ip), vehicle: saline 93 % of control | dose: 50.0 mg/kg/injection, schedule: Q04DX003 (ip), vehicle: saline 95 % of control | [1] 102 % of control and 92 % of control | [2] 98 % of control and 92 % of control | [3] 105 % of control

CSc1ccc(NS(=O)(=O)CCNC(=O)C(O)C(C)(C)CO)cc1 (configuration not stated)
inactive: [4] 100 % of control | [5] 104 % of control | [6] 103 % of control | [7] 96 % of control | [8] 92 % of control | [9] 109 % of control

NC(N)=Nc1ccc(C(=O)Oc2ccc([N+](=O)[O-])cc2[N+](=O)[O-])cc1
inactive: dose: 25.0 mg/kg/injection, schedule: Q04DX003 (ip), vehicle: Klucel (hydroxypropylcellulose) (HPC) 96 % of control | dose: 50.0 mg/kg/injection, schedule: Q01DX009 (ip), vehicle: Klucel (hydroxypropylcellulose) (HPC) 94 % of control | dose: 50.0 mg/kg/injection, schedule: Q04DX003 (ip), vehicle: Klucel (hydroxypropylcellulose) (HPC) 98 % of control | [10] 94 % of control | [11] 91 % of control

CSc1ccc(OC(=O)Nc2ccc(Cl)cc2)cc1
inactive: dose: 100.0 mg/kg/injection, schedule: Q01DX001 (ip), vehicle: saline with Tween-80 95 % of control | [4] 104 % of control and 106 % of control | dose: 100.0 mg/kg/injection, schedule: Q04DX002 (ip), vehicle: Klucel (hydroxypropylcellulose) (HPC) 103 % of control | dose: 100.0 mg/kg/injection, schedule: Q04DX002 (ip), vehicle: saline with Tween-80 98 % of control | [5] 93 % of control | dose: 200.0 mg/kg/injection, schedule: Q01DX001 (ip), vehicle: saline with Tween-80 106 % of control | [6] 102 % of control and 104 % of control | dose: 200.0 mg/kg/injection, schedule: Q04DX002 (ip), vehicle: Klucel (hydroxypropylcellulose) (HPC) 103 % of control | dose: 200.0 mg/kg/injection, schedule: Q04DX002 (ip), vehicle: saline with Tween-80 90 % of control | [7] 95 % of control | dose: 400.0 mg/kg/injection, schedule: Q01DX001 (ip), vehicle: saline with Tween-80 90 % of control | [8] 100 % of control and 117 % of control | dose: 400.0 mg/kg/injection, schedule: Q04DX002 (ip), vehicle: Klucel (hydroxypropylcellulose) (HPC) 92 % of control | dose: 400.0 mg/kg/injection, schedule: Q04DX002 (ip), vehicle: saline with Tween-80 98 % of control | [9] 98 % of control

CCOC(=O)CNC(=O)CNC(=O)CNC(=O)OCc1ccccc1 (Cbz-Gly-Gly-Gly-OEt)
inactive: [12] 93 % of control | [13] 88 % of control | [14] 94 % of control

O=C(c1ccccc1)C1CN(C2CCCCC2)C1c1ccccc1 (configuration not stated)
inactive: dose: 100.0 mg/kg/injection, schedule: Q01DX001 (ip), vehicle: Klucel (hydroxypropylcellulose) (HPC) 109 % of control and 97 % of control | [11] 95 % of control | dose: 200.0 mg/kg/injection, schedule: Q01DX001 (ip), vehicle: Klucel (hydroxypropylcellulose) (HPC) 117 % of control and 99 % of control | [15] 93 % of control | dose: 400.0 mg/kg/injection, schedule: Q01DX001 (ip), vehicle: Klucel (hydroxypropylcellulose) (HPC) 97 % of control and 91 % of control | [16] 97 % of control

CCCC1(CCC)c2ccccc2C(CCl)(OCC)c2ccccc21
inactive: dose: 100.0 mg/kg/injection, schedule: Q01DX009 (ip), vehicle: other 91 % of control | dose: 100.0 mg/kg/injection, schedule: Q04DX003 (ip), vehicle: other 100 % of control | dose: 200.0 mg/kg/injection, schedule: Q01DX009 (ip), vehicle: other 88 % of control | dose: 200.0 mg/kg/injection, schedule: Q04DX003 (ip), vehicle: other 103 % of control | dose: 400.0 mg/kg/injection, schedule: Q01DX009 (ip), vehicle: other 92 % of control | dose: 400.0 mg/kg/injection, schedule: Q04DX003 (ip), vehicle: other 95 % of control

CCSc1nc2c([nH]1)c(=S)n(C)c(=O)n2C
inactive: [12] 96 % of control | [1] 100 % of control | [2] 109 % of control | [13] 112 % of control | [3] 89 % of control | dose: 200.0 mg/kg/injection, schedule: Q04DX003 (ip), vehicle: saline 98 % of control | [14] 95 % of control | dose: 400.0 mg/kg/injection, schedule: Q01DX009 (ip), vehicle: saline 103 % of control | dose: 400.0 mg/kg/injection, schedule: Q04DX003 (ip), vehicle: saline 98 % of control

Cc1ccc(C)c(NC(=O)N(CCO)C2CCCCC2)c1
inactive: [10] 98 % of control | [11] 104 % of control | dose: 200.0 mg/kg/injection, schedule: Q01DX009 (ip), vehicle: Klucel (hydroxypropylcellulose) (HPC) 95 % of control | [15] 103 % of control | dose: 400.0 mg/kg/injection, schedule: Q01DX009 (ip), vehicle: Klucel (hydroxypropylcellulose) (HPC) 90 % of control | [16] 95 % of control

O=[N+]([O-])c1ccc(Br)o1
inactive: dose: 6.25 mg/kg/injection, schedule: Q04DX003 (ip), vehicle: saline with Tween-80 110 % of control | dose: 12.5 mg/kg/injection, schedule: Q04DX003 (ip), vehicle: saline with Tween-80 101 % of control | dose: 25.0 mg/kg/injection, schedule: Q04DX003 (ip), vehicle: saline with Tween-80 105 % of control

COc1ccc2c(c1)c1c(C)c3cnccc3c(C)c1n2CCCN
inactive: dose: 0.5 mg/kg/injection, schedule: Q01DX009 (ip), vehicle: saline 96 % of control | dose: 1.0 mg/kg/injection, schedule: Q01DX009 (ip), vehicle: saline 102 % of control | dose: 3.0 mg/kg/injection, schedule: Q01DX009 (ip), vehicle: saline 104 % of control | dose: 3.0 mg/kg/injection, schedule: Q04DX003 (ip), vehicle: saline 104 % of control | dose: 6.0 mg/kg/injection, schedule: Q01DX009 (ip), vehicle: saline 112 % of control | dose: 6.0 mg/kg/injection, schedule: Q04DX003 (ip), vehicle: saline 104 % of control | dose: 12.0 mg/kg/injection, schedule: Q01DX009 (ip), vehicle: saline 106 % of control | dose: 12.0 mg/kg/injection, schedule: Q04DX003 (ip), vehicle: saline 107 % of control

O=C(c1ccccc1)C(C(O)CCl)C(O)(C(F)(F)F)C(F)(F)F (configuration not stated)
inactive: [5] 89 % of control | [7] 93 % of control | [9] 91 % of control

CN(C)c1ccc(/C=N\NC(=O)CCCC(=O)N/N=C/c2ccc(N(C)C)cc2Cl)c(Cl)c1
inactive: dose: 50.0 mg/kg/injection, schedule: Q01DX001 (ip), vehicle: saline 98 % of control | [12] 98 % of control | [13] 102 % of control | [14] 102 % of control
